The text below walks through data of patent US20230015532A1, “PHARMACEUTICAL COMPOSITION, FOR PREVENTING OR TREATING FIBROSIS, COMPRISING PHEOPHORBIDE COMPOUND AS ACTIVE INGREDIENT” (PAEAN BIOTECHNOLOGY INC., priority 2019, published 2023).

The test system of the experiment is pulmonary fibrosis induced by bleomycin (BLM) in C57BL/6NCr10ri mice. The experiment can be described thus: Bleomycin-induced pulmonary fibrosis model mice. Format: in vivo. The following applies: oral once daily Day 1 to Day 21, 1.25-80 mg/kg. As to the method: Mice were weighed and divided into total seven groups, and then administered intratracheally with sterile physiological saline in the vehicle control group and with BLM in the other groups than the vehicle control group on Day 1 to induce pulmonary fibrosis. Then, from Day 1 to Day 21, DMSO (sigma D2650-5X) devoid of the effective substance was administered to the vehicle control group and the negative control group (fibrosis control).
In addition, T1 to T4 groups and the positive control group were orally administered with the effective substance (pheophorbide a) and nintedanib, respectively, once daily. […]
Following the administration, the death and the moribund status were observed once daily, and general symptoms such as appearance and behavioral changes were observed twice daily. […] Body weight was measured 7 times in total (Day 1, 2, 4, 8, 11, 15 and 18) during the administration and once on the autopsy day.
On Day 22, the animals were euthanized by isoflurane inhalation and subjected to autopsy. […] The organ weight ratio of the extracted lungs was calculated by using the following calculation formula. […]
The results of the experiments were expressed by the mean and the standard deviation and statistically analyzed using Pristima System or Statistical Analysis System (SAS/STAT).

With pheophorbide a, the “anti-fibrotic effect as compared with the negative control group” value (BLM 1.8 mg/kg intratracheal, mice) is recorded as “anti-fibrotic effect”. Under “nintedanib 60 mg/kg, BLM mice”, the “anti-fibrotic effect as compared with the positive control group (nintedanib)” value is reported as “significant anti-fibrotic effect”.
